According to patent US20140357512A1, “HISTONE DEACETYLASE (HDAC) BIOMARKERS IN MULTIPLE MYELOMA” (priority 2013, published 2014):

Tested on: human myeloma cell line MM.1S
Assay: SILAC acetylated-lysine peptide profiling, HDAC inhibitor vs DMSO (light/heavy ratio)
Type: cell-based
Description: An embodiment of the invention comprises utilizing the SILAC method in order to quantitate changes in protein expression between two or more populations of cells. The SILAC method is a technique based on mass spectrometry that detects differences in protein abundance among samples using non-radioactive isotopic labeling. The SILAC method is known in the art, and described in detail in Ong et al., “Stable Isotope Labeling by Amino Acids in Cell Culture, SILAC, as a Simple and Accurate Approach to Expression Proteomics”, Molecular & Cellular Proteomics, vol. 1, pp. 376-386 (2002), which is incorporated herein by reference in its entirety.
Briefly, the SILAC method involves growing two populations of cells in cell culture. The first population of cells is grown in growth media containing normal amino acids (“normal media”). The second population of cells is grown in media lacking a standard essential amino acid (such as lysine), but is then supplemented with a non-radioactive, isotopically labeled form of that essential amino acid (such as lysine labeled with ^13C atoms, rather than normal ^12C atoms), which is called “heavy media”. When the two populations of cells are each growing in the medium, they incorporate the amino acids into all of their proteins. The growth of cells maintained in the heavy media is no different from that in normal media. All peptides containing the heavy amino acids are heavier than their normal counterparts. The cells from each of the two populations of cells are lysed. The lysates from each of the two cell populations are then combined. The combined cell lysates are then analyzed by mass spectrometry. Pairs of chemically identical peptides of different stable isotope composition can be differentiated in a mass spectrometer due to their difference in mass. The ratio of peak intensities in the mass spectrum for such peptide pairs reflects the abundance ratio for the two proteins.
This example describes SILAC studies that were performed to compare the effects of three different HDAC inhibitors (Compound A, Compound B, and tubastatin A) to a control on a human multiple myeloma cell line. The HDAC inhibitors were also compared amongst themselves to determine differences in their effects.
A human myeloma cell line MM.1S was grown using either ^12C (light) or ^13C (heavy) lysine containing culture medium. The “heavy” cells were treated with DMSO as the control, and the “light” cells were treated with a single HDAC inhibitor at 37° C. for 6 hours. The heavy and light cells were lysed, and the lysates were mixed in 1:1 ratio and digested with the protease trypsin. The acetylated lysine containing peptides (due to the action of the HDAC inhibitor) in the digested peptide pool were captured by a non-specific anti-acetylated lysine antibody cocktail (the antibodies identify both light and heavy acetylated peptides), and subjected to mass spectrometry analysis in order to identify thousands of individual peptides.
Thousands of peptides were identified in pairs (^12C and ^13C) due to their known mass differences. The amino acid sequence and quantitative ratio (Light/Heavy) of a given peptide in two differentially treated cell lysates were then determined and annotated with their possible protein (gene) sources.
As stated above, three HDAC inhibitors (Compound A, Compound B, and Tubastatin A) were used. Thus, the SILAC method was performed three times, with a different HDAC inhibitor compared to a control each time. Accordingly, there are three pairs of quantitative data in the table below, i.e., Compound A:DMSO, Compound B:DMSO, and Tubastatin A:DMSO. A cut-off of 1.30 fold of change (increase or decrease) was then used to determine “changed” or “+” in the table, and any peptides with a fold of change less than 1.3 fold were determined to be “unchanged” or “0” in the table. Those peptides that were not identified were marked as “NA” in the table. […]

In the case of `CN1CCc2c(c3ccccc3n2Cc2ccc(C(=O)NO)cc2)C1` [Tub A], the “light to heavy ratio (L/H ratio) of acetylated peptide AVDCLLDSK(ac)WAK (SEQ ID NO: 518)” value (Translocation protein SEC62 [60], gene SEC62, inhibitor:DMSO) is reported as 0.00 log 2, the “light to heavy ratio (L/H ratio) of acetylated peptide VK(ac)FIHDQTSPNPK (SEQ ID NO: 562)” value (Tricarboxylate transport protein mitochondrial [149], gene SLC25A1, inhibitor:DMSO) is reported as 0.00 log 2 and the “light to heavy ratio (L/H ratio), log 2 scale, acetylated peptide FGAPQK(ac)DVK (SEQ ID NO: 788)” value (Trifunctional enzyme subunit alpha mitochondrial [359], gene HADHA, drug:DMSO) is reported as 0.00. For the same compound, the “light to heavy ratio (L/H ratio), log 2 scale, acetylated peptide ILQEGVDPK(ac)K (SEQ ID NO: 789)” value (Trifunctional enzyme subunit alpha mitochondrial [569], gene HADHA, drug:DMSO) was 0.00, the “light to heavy ratio (L/H ratio) of acetylated peptide VPGK(ac)DTVTK (SEQ ID NO: 308)” value (Trifunctional enzyme subunit beta mitochondrial [272], HADHB, drug:DMSO) was 0.40 log 2 and the “L/H ratio of acetylated peptide VVVTK(ac)YCDPDSYHR (SEQ ID NO: 114)” value (U2AF2 [462], log 2 scale, drug vs DMSO) was −0.43. The “L/H ratio of acetylated peptide” value (VAILK(ac)ANLR (SEQ ID NO: 488), Transitional endoplasmic reticulum ATPase [658], VCP) was 0.00 log 2, the “light to heavy ratio (L/H ratio) of acetylated peptide, log 2 scale” value (VALEIFQHSK(ac)YK (SEQ ID NO: 183), Isoform 2 of 39S ribosomal protein L39 mitochondrial [234], MRPL39) was 0.64 and the “L/H ratio of acetylated peptide FGIAAK(ac)YQIDPDACFSAK (SEQ ID NO: 115)” value (VDAC1 [224], log 2 scale, drug vs DMSO) was 0.47. For the same compound, the “L/H ratio of acetylated peptide YK(ac)WCEYGLTFTEK (SEQ ID NO: 116)” value (VDAC2 [63], log 2 scale, drug vs DMSO) was 0.59, the “L/H ratio of acetylated peptide (ac)CNTPTYCDLGK(ac)AAK (SEQ ID NO: 6)” value (VDAC3 [12], log 2 scale, drug vs DMSO) was 0.52 and the “L/H ratio of acetylated peptide YK(ac)VCNYGLTFTQK (SEQ ID NO: 117)” value (VDAC3 [63], log 2 scale, drug vs DMSO) was 0.40. The “L/H ratio of acetylated peptide” value (VIIVVK(ac)DGPGFYTTR (SEQ ID NO: 401), Trifunctional enzyme subunit alpha mitochondrial [540], HADHA) was 0.00 log 2, the “L/H ratio of acetylated peptide TNEK(ac)VELQELNDR (SEQ ID NO: 122)” value (VIM [104], log 2 scale, drug vs DMSO) was −0.59 and the “L/H ratio of acetylated peptide FANYIDK(ac)VR (SEQ ID NO: 118)” value (VIM [120], log 2 scale, drug vs DMSO) was −0.65. The “L/H ratio of acetylated peptide ILLAELEQLK(ac)GQGK (SEQ ID NO: 119)” value (VIM [139], log 2 scale, drug vs DMSO) was −0.82, the “L/H ratio of acetylated peptide SK(ac)FADLSEAANR (SEQ ID NO: 121)” value (VIM [294], log 2 scale, drug vs DMSO) was −0.60 and the “L/H ratio of acetylated peptide LQDEIQNMK(ac)EEMAR (SEQ ID NO: 120)” value (VIM [373], log 2 scale, drug vs DMSO) was −0.72. For the same compound, the “light to heavy ratio (L/H ratio) of acetylated peptide, log 2 scale” value (VLK(ac)GNTAEGCVHETQEK (SEQ ID NO: 186), Isoform 1 of Myb-binding protein 1A [935], MYBBP1A) was −0.43, the “light to heavy ratio (L/H ratio) of acetylated peptide, log 2 scale” value (VLPSIVNEVLK(ac)SVVAK (SEQ ID NO: 195), Prohibitin-2 [142], PHB2) was 1.00 and the “light to heavy ratio (L/H ratio) of acetylated peptide, log 2 scale” value (VNLQNNPGAMEHFHMK(ac)LFR (SEQ ID NO: 136), B-cell receptor-associated protein 31 [95], BCAP31) was 0.52. For the same compound, the “light to heavy ratio (L/H ratio) of acetylated peptide, log 2 scale” value (VTEK(ac)IPVR (SEQ ID NO: 168), Isoform Short of Heterogeneous nuclear ribonucleoprotein U [324], HNRNPU) was −0.76, the “light to heavy ratio (L/H ratio) of acetylated peptide, log 2 scale” value (VVVGK(ac)TFDSIVMDPK (SEQ ID NO: 193), Protein disulfide-isomerase A4 [533], PDIA4) was −0.80 and the “light to heavy ratio (L/H ratio) of acetylated peptide DLQQYQSQAK(ac)QLFR (SEQ ID NO: 321)” value (Vesicle-trafficking protein SEC22b [38], SEC22B, drug:DMSO) was 0.46 log 2. The “light to heavy ratio (L/H ratio) of acetylated peptide TLLIK(ac)TVETR (SEQ ID NO: 269)” value (Vimentin [445], VIM, drug:DMSO) was −0.54 log 2, the “light to heavy ratio (L/H ratio) of acetylated peptide, log 2 scale” value (WVFK(ac)EEGVLR (SEQ ID NO: 150), Dolichyl-diphosphooligosaccharide--protein glycosyltransferase 48 kDa subunit [301], DDOST) was −0.53 and the “light to heavy ratio (L/H ratio) of acetylated peptide KQELLEALTK(ac)HFQD (SEQ ID NO: 355)” value (X-ray repair cross-complementing protein 6 [605], XRCC6, drug:DMSO) was 0.00 log 2. The “L/H ratio of acetylated peptide ALQEK(ac)VEIK (SEQ ID NO: 123)” value (XRCC5 [665], log 2 scale, drug vs DMSO) was −0.46, the “light to heavy ratio (L/H ratio) of acetylated peptide, log 2 scale” value (YGPFVADFADK(ac)LNEQK (SEQ ID NO: 134), ATP synthase subunit b mitochondrial [126], ATP5F1) was −0.45 and the “light to heavy ratio (L/H ratio) of acetylated peptide, log 2 scale” value (YIAK(ac)QESVEER (SEQ ID NO: 140), Isoform 3 of Coiled-coil domain-containing protein 144A [754], CCDC144A) was −0.42. The “light to heavy ratio (L/H ratio) of acetylated peptide, log 2 scale” value (YLENGK(ac)ETLQR (SEQ ID NO: 163), Putative HLA class I histocompatibility antigen alpha chain H [200], HLA-H) was −0.46, the “light to heavy ratio (L/H ratio) of acetylated peptide, log 2 scale” value (YLLYGEK(ac)GTGK (SEQ ID NO: 147), 28S ribosomal protein S29 mitochondrial [130], DAP3) was 0.46 and the “light to heavy ratio (L/H ratio) of acetylated peptide YFLDK(ac)TLTSR (SEQ ID NO: 293)” value ([3-methyl-2-oxobutanoate dehydrogenase [lipoamide]] kinase mitochondrial [192], BCKDK, drug:DMSO) was 0.50 log 2. For the same compound, the “light to heavy ratio (L/H ratio) of acetylated peptide, log 2 scale” value ([…](ac)PER (SEQ ID NO: 219), cDNA FLJ59739 highly similar to Protein transport protein Sec61 subunit alpha isoform 1 [27], SEC61A1) was 0.49, the “light to heavy ratio (L/H ratio) of acetylated peptide SAYFAEK(ac)LYK (SEQ ID NO: 292)” value (annexin A4 [255], ANXA4, drug:DMSO) was 0.62 log 2 and the “light to heavy ratio (L/H ratio) of acetylated peptide ILMSK(ac)PVLSGGTGR (SEQ ID NO: 291)” value (cDNA FLJ55380 highly similar to Protein kinase C-binding protein 1 [440], ZMYND8, drug:DMSO) was 0.65 log 2. For the same compound, the “light to heavy ratio (L/H ratio) of acetylated peptide YDGK(ac)WEVEEMK (SEQ ID NO: 274)” value (cDNA FLJ55574 highly similar to Calnexin [138], CANX, drug:DMSO) was −0.49 log 2, the “light to heavy ratio (L/H ratio) of acetylated peptide LNK(ac)PFLFDTK (SEQ ID NO: 327)” value (cDNA FLJ55574 highly similar to Calnexin [172], CANX, drug:DMSO) was 0.00 log 2 and the “light to heavy ratio (L/H ratio) of acetylated peptide LLASK(ac)SLLNR (SEQ ID NO: 322)” value (cDNA FLJ56303 highly similar to Translocon-associated protein subunit beta [46], SSR2, drug:DMSO) was −0.59 log 2. For the same compound, the “light to heavy ratio (L/H ratio) of acetylated peptide IINEVSK(ac)PLAHHIPVEK (SEQ ID NO: 341)” value (cDNA FLJ77177 highly similar to Homo sapiens arginine-rich mutated in early stage tumors (ARMET) mRNA [97], MANF, drug:DMSO) was 0.00 log 2, the “light to heavy ratio (L/H ratio) of acetylated peptide TNVPVK(ac)LFAR (SEQ ID NO: 348)” value (cDNA FLJ77422 highly similar to Homo sapiens RNA binding protein autoantigenic (hnRNP-associated with lethal yellow homolog (mouse)) transcript variant 1 mRNA (Fragment) [165], RALY, drug:DMSO) was 0.00 log 2 and the “light to heavy ratio (L/H ratio) of acetylated peptide GSK(ac)FYGPAGPYGIFAGR (SEQ ID NO: 265)” value (membrane-associated progesterone receptor component 2 [159], PGRMC2, drug:DMSO) was −0.45 log 2. The “light to heavy ratio (L/H ratio) of acetylated peptide SK(ac)SDPIMLLK (SEQ ID NO: 255)” value (pyruvate dehydrogenase E1 component subunit alpha somatic form mitochondrial isoform 2 precursor [351], PDHA1, drug:DMSO) was 0.52 log 2, the “light to heavy ratio (L/H ratio) of acetylated peptide LTSLNVK(ac)YNNDK (SEQ ID NO: 590)” value (regulator of differentiation 1 isoform 2 [236], gene ROD1, inhibitor:DMSO) was 0.00 log 2 and the “light to heavy ratio (L/H ratio) of acetylated peptide GWLK(ac)SNVSDAVAQSTR (SEQ ID NO: 278)” value (triosephosphate isomerase isoform 2 [231], TPI1, TPI1P1, drug:DMSO) was −0.41 log 2.
